Measured values reported in US9833497B2, “Human originated EGF domain proteins and use of the same” (CHENGDU SOURCEBIO LIMITED-LIABILITY COMPANY, priority 2013, dated 2017).

Legend:
Format in all cases: cell-based
Citrobacter diversus = assay: MIC against Gram-negative bacteria: Citrobacter diversus
Procedure, shortened: (§1)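 Inocula prepared by growing LB cultures at 37° C to 0.5 McFarland, centrifuging at 4000×g, and resuspending in fresh medium. Final density 5×10^5 CFU/mL per well with two-fold dilutions of purified EGF domain protein; shaking incubation at 37° C.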

Enterobacter cloacae = assay: MIC against Gram-negative bacteria: Enterobacter cloacae
Procedure, shortened: as §1

Proteus mirabilis = assay: MIC against Gram-negative bacteria: Proteus mirabilis
Procedure, shortened: as §1

E. coli BL21 = assay: MIC against Gram-negative bacteria: E. coli BL21
Procedure, shortened: as §1

Serratia marcescens = assay: MIC against Gram-negative bacteria: Serratia marcescens
Procedure, shortened: as §1

Klebsiella pneumonia = assay: MIC against Gram-negative bacteria: Klebsiella pneumonia
Procedure, shortened: as §1

Proteus vulgaris = assay: MIC against Gram-negative bacteria: Proteus vulgaris
Procedure, shortened: as §1

Moraxella catarrhalis = assay: MIC against Gram-negative bacteria: Moraxella catarrhalis
Procedure, shortened: as §1

E. coli DH5α = assay: Antibacterial activity: MIC and growth curve against E. coli DH5α in 96-well plate; details: minimal inhibitory concentration against E. coli DH5α; 96-well plate, 5×10^5 CFU/mL, 37° C., judged after 8 h
Procedure, shortened: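 MIC taken as lowest protein level with no bacterial growth, tracked by A600 every 30 min during 37 °C, 175 rpm culture. Two-fold protein series 50-12.5 μg/mL final, triplicate wells, against 5×10^5 CFU/mL of LB-washed mid-log cells.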

Pseudomonas aeruginosa = assay: MIC against Gram-negative bacteria: Pseudomonas aeruginosa
Procedure, shortened: as §1

Aeromonas hydrophila = assay: MIC against Gram-negative bacteria: Aeromonas hydrophila
Procedure, shortened: as §1

[1] = 10 h cultivation at 37° C., 5×10^5 CFU/mL, two-fold serial dilution
[2] = C. diversus, 10 h cultivation at 37° C., 5×10^5 CFU/mL
[3] = E. cloacae, 10 h cultivation at 37° C., 5×10^5 CFU/mL
[4] = P. mirabilis, 10 h cultivation at 37° C., 5×10^5 CFU/mL
[5] = E. coli BL21, 10 h cultivation at 37° C., 5×10^5 CFU/mL
[6] = S. marcescens, 10 h cultivation at 37° C., 5×10^5 CFU/mL
[7] = K. pneumonia, 10 h cultivation at 37° C., 5×10^5 CFU/mL
[8] = P. vulgaris, 10 h cultivation at 37° C., 5×10^5 CFU/mL
[9] = M. catarrhalis, 10 h cultivation at 37° C., 5×10^5 CFU/mL
[10] = P. aeruginosa, 10 h cultivation at 37° C., 5×10^5 CFU/mL
[11] = A. hydrophila, 10 h cultivation at 37° C., 5×10^5 CFU/mL

Substance: PRT1005 (LMDLCAQKPCPRNSHCLQTGPSFHCLCLQGWTGPLCN; listed as Homo sapiens)
- MIC (Citrobacter diversus; C. diversus, 10 h cultivation at 37° C.): 25 µg/mL
- MIC (Enterobacter cloacae; E. cloacae, 10 h cultivation at 37° C.): 25 µg/mL
- MIC (Proteus mirabilis; P. mirabilis, 10 h cultivation at 37° C.): 25 µg/mL
- MIC (E. coli BL21; E. coli BL21, 10 h cultivation at 37° C.): 12.5 µg/mL
- MIC (Serratia marcescens; S. marcescens, 10 h cultivation at 37° C.): 25 µg/mL
- MIC (Klebsiella pneumonia; K. pneumonia, 10 h cultivation at 37° C.): 12.5 µg/mL
- MIC (Proteus vulgaris; P. vulgaris, 10 h cultivation at 37° C.): 50 µg/mL
- MIC (Moraxella catarrhalis; M. catarrhalis, 10 h cultivation at 37° C.): 12.5 µg/mL
- MIC (E. coli DH5α): 50 µg/mL
- MIC (Pseudomonas aeruginosa; P. aeruginosa, 10 h cultivation at 37° C.): 50 µg/mL
- MIC (Aeromonas hydrophila; A. hydrophila, 10 h cultivation at 37° C.): 50 µg/mL

Substance: PRT6 (TRKLCSLDNGDCDQFCHEEQNSVVCSCARGYTLADNGKACI; listed as Homo sapiens)
- MIC (μg/mL) C. diversus (Citrobacter diversus; Citrobacter diversus, 96-well plate, 5×10^5 CFU/mL, 37° C., 10 h): 25 µg/mL
- MIC (μg/mL) E. cloacae (Enterobacter cloacae; Enterobacter cloacae, 96-well plate, 5×10^5 CFU/mL, 37° C., 10 h): 25 µg/mL
- MIC (μg/mL) P. mirabilis (Proteus mirabilis; Proteus mirabilis, 96-well plate, 5×10^5 CFU/mL, 37° C., 10 h): 12.5 µg/mL
- MIC (μg/mL) E. coli BL21 (E. coli BL21; E. coli BL21, 96-well plate, 5×10^5 CFU/mL, 37° C., 10 h): 50 µg/mL
- MIC (μg/mL) S. marcescens (Serratia marcescens; Serratia marcescens, 96-well plate, 5×10^5 CFU/mL, 37° C., 10 h): 25 µg/mL
- MIC (μg/mL) K. pneumonia (Klebsiella pneumonia; Klebsiella pneumonia, 96-well plate, 5×10^5 CFU/mL, 37° C., 10 h): 50 µg/mL
- MIC (μg/mL) P. vulgaris (Proteus vulgaris; Proteus vulgaris, 96-well plate, 5×10^5 CFU/mL, 37° C., 10 h): 25 µg/mL
- MIC (μg/mL) M. catarrhalis (Moraxella catarrhalis; Moraxella catarrhalis, 96-well plate, 5×10^5 CFU/mL, 37° C., 10 h): 25 µg/mL
- MIC (E. coli DH5α): 50 µg/mL
- MIC (μg/mL) P. aeruginosa (Pseudomonas aeruginosa; Pseudomonas aeruginosa, 96-well plate, 5×10^5 CFU/mL, 37° C., 10 h): 25 µg/mL
- MIC (μg/mL) A. hydrophila (Aeromonas hydrophila; Aeromonas hydrophila, 96-well plate, 5×10^5 CFU/mL, 37° C., 10 h): 12.5 µg/mL

Substance: PRT1093 (RKDWCESQPCQSRGRCINLWLSYQCDCHRPYEGPNCL; listed as Homo sapiens)
- MIC C. diversus (Citrobacter diversus; [1]): 25 µg/mL
- MIC E. cloacae (Enterobacter cloacae; [1]): 12.5 µg/mL
- MIC P. mirabilis (Proteus mirabilis; [1]): 25 µg/mL
- MIC E. coli BL21 (E. coli BL21; [1]): 50 µg/mL
- MIC S. marcescens (Serratia marcescens; [1]): 12.5 µg/mL
- MIC K. pneumonia (Klebsiella pneumonia; [1]): 50 µg/mL
- MIC P. vulgaris (Proteus vulgaris; [1]): 50 µg/mL
- MIC M. catarrhalis (Moraxella catarrhalis; [1]): 12.5 µg/mL
- MIC (E. coli DH5α): 12.5 µg/mL
- MIC P. aeruginosa (Pseudomonas aeruginosa; [1]): 12.5 µg/mL
- MIC A. hydrophila (Aeromonas hydrophila; [1]): 50 µg/mL

Substance: PRT144 (DKKVCSSNPCQNGGTCLNLHDSFFCICPPQWKGPLCS; listed as Homo sapiens)
- MIC (μg/mL) C. diversus (Citrobacter diversus; [2]): 25 µg/mL
- MIC (μg/mL) E. cloacae (Enterobacter cloacae; [3]): 12.5 µg/mL
- MIC (μg/mL) P. mirabilis (Proteus mirabilis; [4]): 25 µg/mL
- MIC (μg/mL) E. coli BL21 (E. coli BL21; [5]): 50 µg/mL
- MIC (μg/mL) S. marcescens (Serratia marcescens; [6]): 12.5 µg/mL
- MIC (μg/mL) K. pneumonia (Klebsiella pneumonia; [7]): 50 µg/mL
- MIC (μg/mL) P. vulgaris (Proteus vulgaris; [8]): 50 µg/mL
- MIC (μg/mL) M. catarrhalis (Moraxella catarrhalis; [9]): 12.5 µg/mL
- MIC (E. coli DH5α): 25 µg/mL
- MIC (μg/mL) P. aeruginosa (Pseudomonas aeruginosa; [10]): 12.5 µg/mL
- MIC (μg/mL) A. hydrophila (Aeromonas hydrophila; [11]): 50 µg/mL

Substance: PRT203 (CSPAFCNKRGICNNKHHCHCNYLWDPPNCL; listed as Homo sapiens)
- MIC (μg/mL) C. diversus (Citrobacter diversus; [2]): 50 µg/mL
- MIC (μg/mL) E. cloacae (Enterobacter cloacae; [3]): 12.5 µg/mL
- MIC (μg/mL) P. mirabilis (Proteus mirabilis; [4]): 50 µg/mL
- MIC (μg/mL) E. coli BL21 (E. coli BL21; [5]): 25 µg/mL
- MIC (μg/mL) S. marcescens (Serratia marcescens; [6]): 50 µg/mL
- MIC (μg/mL) K. pneumonia (Klebsiella pneumonia; [7]): 25 µg/mL
- MIC (μg/mL) P. vulgaris (Proteus vulgaris; [8]): 25 µg/mL
- MIC (μg/mL) M. catarrhalis (Moraxella catarrhalis; [9]): 25 µg/mL
- MIC (E. coli DH5α): 12.5 µg/mL
- MIC (μg/mL) P. aeruginosa (Pseudomonas aeruginosa; [10]): 12.5 µg/mL
- MIC (μg/mL) A. hydrophila (Aeromonas hydrophila; [11]): 25 µg/mL

Substance: PRT1413 (PTNQCIDVACSNHGTCITGTCICNPGYKGESCE; listed as Homo sapiens)
- MIC against C. diversus (Citrobacter diversus; Citrobacter diversus, 5×10^5 CFU/mL, 10 h cultivation at 37° C.): 50 µg/mL
- MIC against E. cloacae (Enterobacter cloacae; Enterobacter cloacae, 5×10^5 CFU/mL, 10 h cultivation at 37° C.): 12.5 µg/mL
- MIC against P. mirabilis (Proteus mirabilis; Proteus mirabilis, 5×10^5 CFU/mL, 10 h cultivation at 37° C.): 50 µg/mL
- MIC against E. coli BL21 (E. coli BL21; E. coli BL21, 5×10^5 CFU/mL, 10 h cultivation at 37° C.): 25 µg/mL
- MIC against S. marcescens (Serratia marcescens; Serratia marcescens, 5×10^5 CFU/mL, 10 h cultivation at 37° C.): 12.5 µg/mL
- MIC against K. pneumonia (Klebsiella pneumonia; Klebsiella pneumonia, 5×10^5 CFU/mL, 10 h cultivation at 37° C.): 25 µg/mL
- MIC against P. vulgaris (Proteus vulgaris; Proteus vulgaris, 5×10^5 CFU/mL, 10 h cultivation at 37° C.): 25 µg/mL
- MIC against M. catarrhalis (Moraxella catarrhalis; Moraxella catarrhalis, 5×10^5 CFU/mL, 10 h cultivation at 37° C.): 12.5 µg/mL
- MIC (E. coli DH5α): 12.5 µg/mL
- MIC against P. aeruginosa (Pseudomonas aeruginosa; Pseudomonas aeruginosa, 5×10^5 CFU/mL, 10 h cultivation at 37° C.): 50 µg/mL
- MIC against A. hydrophila (Aeromonas hydrophila; Aeromonas hydrophila, 5×10^5 CFU/mL, 10 h cultivation at 37° C.): 25 µg/mL
